Entries after “also recorded” stand apart in the source; their conditions may differ.
How the values were obtained:
[1] = tested on: LAB isolates from commercial ethanol plants (multiple species of Lactobacillus, Lactococcus, Weissella, Leuconostoc, Pediococcus, Enterococcus, and …); test: Inhibitory activity spectrum: culture supernatant spotted onto indicator bacterial lawns; format: cell-based, lactic acid bacteria
Method: (§1) FIG. 1 is a schematic representation of the proteins responsible for producing the bacteriocin of the invention. In the discovery of the unique broad spectrum bacteriocin of this invention, indigenous LAB were isolated and purified from the fermentation mash of the commercial ethanol fermentation plants. The identities of the isolates were determined to the species level based on their 16s rDNA sequences. The capability of the isolated LAB strains to produce antimicrobial compounds was identified. Culture supernatants of the strains to be tested were spotted onto individual indicator bacterial culture lawns, which were prepared using a variety of LAB strains of different genera. […] Any positive activity of bacterial growth inhibition from the tested culture supernatant was confirmed again in the same manner, and the inhibitory activity spectrum of the antimicrobial compound is determined. […]
(§2) FIG. 1 is a schematic representation of the proteins responsible for producing the bacteriocin of the invention. The inhibitory activity spectrum of GP15cin against different strains was determined. The active concentration range and the minimum inhibition concentration of the bacteriocin are determined using different indicator strains. The activity levels of the bacteriocin present in the raw bacterial culture supernatants and/or in partially purified mixtures were also determined. […]

[2] = tested on: non-LAB isolates, such as strains of Staphylococcus, Enterobacter, Bacillus, and Clostridium; test: as above; format: cell-based
Method: as §1, §2

[3] = Stability of bacteriocin activity at different temperatures and pH values; format: physicochemical
From the text: FIG. 1 is a schematic representation of the proteins responsible for producing the bacteriocin of the invention. Either using crude, partially or completely purified form, the chemical characteristics of the bacteriocins can be determined. The determined characteristics include their sensitivities to different enzymes, stability at different temperatures and pH values, etc. Sensitivity of the bacteriocin to proteolytic and lipolytic enzymes, such as trypsin, pepsin, pronase, lipase, etc, was tested. The proteinaceus nature of GP15cin was confirmed. […] The same bacteriocin has optimal activity in the pH range of 4-10.

[4] = tested on: indigenous contaminating bacteria in fermentation mash from commercial ethanol plants; test: Reduction of indigenous contaminating bacterial levels in ethanol fermentation mash; format: cell-based; conditions: crude form
Method: FIG. 1 is a schematic representation of the proteins responsible for producing the bacteriocin of the invention. The inhibitory activity spectrum of GP15cin against different strains was determined. The active concentration range and the minimum inhibition concentration of the bacteriocin are determined using different indicator strains. The activity levels of the bacteriocin present in the raw bacterial culture supernatants and/or in partially purified mixtures were also determined. […] FIG. 2 to FIG. 11 show the effectiveness of GP15cin in reducing the total levels of indigenous bacteria presented in fermentation mash from different commercial ethanol plants. The exact identities of the indigenous bacteria population in different plants are unknown and are likely highly diverse.
GP15cin described herein were produced by a L. plantarum strain, which was isolated from the indigenous LAB populations present during commercial ethanol fermentation. GP15cin can act towards species and/or strains of similar indigenous LAB populations and thus can be used as an effective control for contaminating LAB. […] Either fermentor or mash cooler mash samples were collected from 6 different commercial ethanol plants on 13 different days from 2012 to 2014. Results of 15 independent tests are shown. […]

[5] = tested on: contaminating LAB; test: Lactic acid and acetic acid levels during laboratory-scale ethanol fermentation; format: cell-based, lactic acid bacteria
From the text: GP15cin described herein were produced by a L. plantarum strain, which was isolated from the indigenous LAB populations present during commercial ethanol fermentation. GP15cin can act towards species and/or strains of similar indigenous LAB populations and thus can be used as an effective control for contaminating LAB. […] Either fermentor or mash cooler mash samples were collected from 6 different commercial ethanol plants on 13 different days from 2012 to 2014. Results of 15 independent tests are shown. […] It is likely that the effects on controlling contaminating bacteria and acids will be even more significant if a higher dose of […] is used. The presented results highlight the feasibility of GP15cin application for control of unwanted bacteria in ethanol and other biofuel industries.

[6] = tested on: Lactobacillus GP15 (production host); test: Activity against own production host; format: cell-based, Lactobacillus plantarum
From the text: As noted above, GP-15cin may be applied alone or in combination with other bacteriocin and/or bacteriophage virulent for unwanted bacteria in the same system. Bacteriocin producing hosts are immune to the bacteriocins produced by themselves. GP-15cin is therefore not active against its own production host, […]. […] Therefore it is desirable to combine GP-15cin with a different bacteriocin in a cocktail that will kill the bacteria insensitive to GP15cin. Additionally GP-15cin may be combined with other antimicrobial agents to broaden the scope of effectiveness against the range of unwanted bacteria that are targeted. For example the combination of bacteriocin and bacteriophage (phage) ensures a broader inhibition spectrum and more efficient control of the bacteria contamination. Phage targeting these non-sensitive strains can be isolated, and be combined with the bacteriocin for a complete control of contaminating bacteria.

[7] = tested on: Lactobacillus fermentum strain 0315-25; test: Batch culture growth inhibition, bacteriocin and phage alone and combined; format: cell-based; conditions: 24 h
Method: Bacteriocin alone, bacteriophage alone, and bacteriocin combined with phage were tested against Lactobacillus in batch culture systems. To be specific, logarithmic growth phase cultures of Lactobacillus fermentum strain 0315-25 (OD600 being 0.1) were treated either with single agent at different doses, such as bacteriocin GP15cin alone at different doses (0.1%, 1%, and 10%, v/v), or a phage designated herein as LferInf alone at different MOIs (0.1, 1, and 10), or two agents combined together at different doses, such as 0.1% GP15cin plus LferInf at MOI of 0.1, 0.1% GP15cin plus phage LferInf at MOI of 1, 1% GP15cin plus LferInf at MOI of 0.1, and 1% GP15cin plus phage LferInf at MOI of 1. Culture without any treatment was served as control. LferInf is a bacteriophage isolated from wastewater and found to be effective against a broad host range of Lactobacillus and described in more detail below. The growth of bacteria was monitored for 24 h, and the treatment effects were compared.

plantaricin W [GP15cin]
killing spectrum against a list of bacteria ([1]; LAB genera plus Staphylococcus, Enterobacter, Bacillus, Clostridium): extremely broad killing spectrum
killing activity against LAB isolates ([1]; LAB isolates from commercial ethanol plants): broad range killing activity against the vast majority of the LAB isolates
killing activity against non-LAB isolates [2]: showed killing activity
pH range of optimal activity [3]: 4-10 pH
loss of activity / heat resistance ([3]; after 2 hours at 120° C.): not a complete loss of activity
reversibility of activity loss ([3]; extreme pH values): does not appear to be reversible
loss of activity ([3]; pH 12): complete loss of activity
reduction in activity ([3]; pH values of 1, 2, 3, and 11): 50%
reduction in activity ([3]; temperature of 12.0° C. (so in the source)): 87.5%
reduction in activity ([3]; temperatures of 65-100° C.): 50%
time in which the reduction effect was seen [4]: ≥ 2 h
reduction of indigenous contaminating bacteria levels ([4]; mash from 6 commercial ethanol plants, 15 independent tests): consistent reduction effects seen in all tests; also recorded: reduced indigenous contaminating bacteria levels in all mash samples
acetic acid level produced by contaminating LAB [5]: significantly reduced
lactic acid level produced by contaminating LAB [5]: significantly reduced
activity against its own production host [6]: not active
growth of L. fermentum compared to control ([7]; GP15cin alone at 0.1% v/v): all treatment, except GP15cin used at 0.1%, suppressed the growth
growth of L. fermentum compared to control ([7]; GP15cin alone at 1% and 10% v/v): suppressed the growth

— patent US20150320829A1, “Broad Spectrum Bacteriocin for Control of Unwanted Bacteria” (priority 2014, published 2015)
